Laboratory results taken from PMC12455130, “Multifunctional molecular agent for tau-targeted combinational therapy of Alzheimer’s disease” (The Journal of Biological Chemistry, 2025).

Assays:
Solubility = type: physicochemical; settings: for solubility in polar organic solvent: DMSO
Source text: Therefore, in the following experiments, they were first dissolved in DMSO and further diluted in an excess of buffer. […] Logically, 1,4,7,10-tetramethyl-1,4,7,10-tetraazacyclododecane (4ME) and GA (compound structure was shown in Fig. S1) are considered as the precursor of 4GA and 2GA and therefore used as a comparative study to confirm whether the ancillary ligand had any effect on aggregation.

[1] = UV-visible titration and Job's plot, coordination to Cu2+; type: physicochemical; settings: for Job's plot isosbestic point, mol fraction of Cu2+: 5 mM total in DMSO; for coordination stoichiometry with Cu2+: Job's method, 5 mM in DMSO
Procedure: The UV–visible spectrum was used to reveal their coordination properties to Cu^2+. […] The increased absorption at 481 nm and 475 nm (Fig. 3, A and B, inset) definitely indicated the complexation of 4GA–Cu^2+ and 2GA–Cu^2+, respectively. The coordination stoichiometry of 4GA and 2GA with Cu^2+ was determined by Job’s plot analysis (Fig. 3, C and D). […] However, their macrocyclic precursors (cyclen and N-methylated cyclen 2ME]) were evaluated to coordinate with Cu^2+ by 1:1 mode (Fig. S9). The different coordination mode with Cu^2+ was supposed to be the synergistic coordination effects of galloyl side arms, in addition to the central azacrown structure.
The chelating studies were performed on Hitachi U-2900 UV–visible spectrophotometer with a 10-mm quartz cell. For titration experiment, the UV absorption of test compound (1 mM in DMSO) was recorded in the presence of CuCl2 (0–6 equivalents of Cu^2+ for 4GA, 0–5 equivalents of Cu^2+ for 2GA, respectively). For Job’s method, a series of solution was prepared in which the total concentration of compound and Cu^2+ was fixed (5 mM in DMSO), but their proportions of ether component varied between 0% and 100%, and the UV spectra were analyzed to determine the ratio of ligand–Cu^2+.
Figure S9. The chemical structure of cyclen derivates (upper), and the determination of the stoichiometry of complex (A) cyclen-Cu^2+, (B) 1ME-Cu^2+, (C) 2ME-Cu^2+, (D) 3ME-Cu^2+, (E) 4ME-Cu^2+ (5 mM) by Job’s method.

Structure (SMILES) | solubility in water (Solubility) | solubility in polar organic solvent (Solubility) | Job's plot isosbestic point, mol fraction of Cu2+ [1] [mol fraction] | coordination stoichiometry with Cu2+ [1]
O=C(c1cc(O)c(O)c(O)c1)N1CCN(C(=O)c2cc(O)c(O)c(O)c2)CCN(C(=O)c2cc(O)c(O)c(O)c2)CCN(C(=O)c2cc(O)c(O)c(O)c2)CC1 [4GA, (1,4,7,10-tetraazacyclododecane-1,4,7,10-tetrayl)tetrakis((3,4,5-trihydroxyphenyl)methanone)] | slightly soluble in water | soluble in polar organic solvent such as dimethyl sulfoxide (DMSO) | 0.7 | can bind with two Cu^2+ ions
CN1CCN(C(=O)c2cc(O)c(O)c(O)c2)CCN(C)CCN(C(=O)c2cc(O)c(O)c(O)c2)CC1 [2GA, (4,10-dimethyl-1,4,7,10-tetraazacyclododecane-1,7-diyl)bis((3,4,5-trihydroxyphenyl)methanone)] | slightly soluble in water | soluble in polar organic solvent such as dimethyl sulfoxide (DMSO) | 0.7 | can bind with two Cu^2+ ions
